Values after ≈ are worked out from the molar mass of the structure shown. Like-named read-outs stand apart in the source and are kept apart here.
What was measured:
[1] = tested on: C. albicans YEM-11 (BEN overexpressor); assay: microbe, parasite or virus in culture; assay type: cell-based; details: Candida albicans, read-out: MIC Mb alone
C. albicans YEM-13 (BEN) = assay type: cell-based
[2] = tested on: S. cerevisiae YEM-40 (CgCDR, MF, introduced); assay: microbe, parasite or virus in culture; assay type: cell-based; details: Saccharomyces cerevisiae, read-out: MIC Mb alone
[3] = tested on: S. cerevisiae YEM-38 (FLU1 introduced); assay: microbe, parasite or virus in culture; assay type: cell-based; details: Saccharomyces cerevisiae, read-out: MIC Mb alone
[4] = tested on: C. albicans YEM-29 (BEN, FLU1 deleted); assay: microbe, parasite or virus in culture; assay type: cell-based
[5] = tested on: C. albicans YEM-15 (CDR1 & CDR2 overexpressor); assay type: cell-based
[6] = tested on: C. albicans YEM-20 (CDR1 deleted); assay: microbe, parasite or virus in culture; assay type: cell-based
BenR pump = BenR pump (Candida albicans, UniProt P28873); assay: Follow-up evaluation of screening hit, efflux pump inhibition; details: follow-up evaluation of screen hit
Experimental: An exemplary screen uses C. albicans (e.g., ATCC10231) grown in YPD medium (medium described in “Guide to Yeast Genetics and Molecular Biology”, in Methods in Enzymolopy, vol. 194, pp.13, 1991,; Academic Press; Ed. C. Guthrie and G. Fink) at 30° C. […] Test and control cultures are inoculated with log-phase cells to provide approximately 10^3 CFU/ml. Cultures are incubated at 30° C. for 20-22 hrs. Cell concentration is determined by taking the OD600.

[7] = tested on: C. glabrata YEM-18 (low level CgBEN and CgCDR expression); assay: microbe, parasite or virus in culture; assay type: cell-based
[8] = tested on: C. glabrata YEM-17 (CgCDR overexpressor); assay: microbe, parasite or virus in culture; assay type: cell-based
[9] = tested on: C. albicans YEM-30 (wild-type, no pump deleted); assay: microbe, parasite or virus in culture; assay type: cell-based
[10] = tested on: S. cerevisiae YEM-2 (BEN introduced); assay: microbe, parasite or virus in culture; assay type: cell-based; details: Saccharomyces cerevisiae, read-out: MIC Mb alone
[11] = tested on: C. albicans YEM-21 (BEN deleted); assay: microbe, parasite or virus in culture; assay type: cell-based
[12] = tested on: C. glabrata YEM-16 (low level CgBEN and CgCDR expression); assay: microbe, parasite or virus in culture; assay type: cell-based
[13] = tested on: C. albicans YEM-24 (CDR1, CDR2 deleted); assay: microbe, parasite or virus in culture; assay type: cell-based
[14] = tested on: C. glabrata YEM-19 (CgCDR overexpression, higher than YEM-17); assay: microbe, parasite or virus in culture; assay type: cell-based
C. lipolytica = assay: microbe, parasite or virus in culture; assay type: cell-based; details: strain 828B; MIC (80%) in YPD
[15] = tested on: C. glabrata clinical isolates (n = 12); assay: microbe, parasite or virus in culture; assay type: cell-based
[16] = tested on: S. cerevisiae YEM-1 overexpressing CDR1 (C. albicans); assay: microbe, parasite or virus in culture; assay type: cell-based; set-up: MIC Reduction Factor, fluconazole: unit not given beside the values; details: for MIC: Saccharomyces cerevisiae
C. krusei YEM-71 = assay: Broth dilution checkerboard, azoles and terbinafine with milbemycin α9 (Table 8); assay type: cell-based; set-up: MIC Reduction Factor, fluconazole / MIC Reduction Factor, itraconazole / MIC Reduction Factor, ketoconazole / MIC Reduction Factor, terbinafine: unit not given beside the values; details: for MIC: Pichia kudriavzevii
C. krusei = assay: microbe, parasite or virus in culture; assay type: cell-based
[17] = molecular target: pFLU (MF) efflux pump in S. cerevisiae YEM-38 (Candida albicans, UniProt G1UB37); assay: cell-based; assay type: cell-based, C. albicans
[18] = tested on: S. cerevisiae YEM-39 overexpressing CgCDR (C. glabrata); assay: microbe, parasite or virus in culture; assay type: cell-based; set-up: MIC Reduction Factor, fluconazole: unit not given beside the values; details: for MIC: Saccharomyces cerevisiae
[19] = tested on: C. glabrata YEM-17 (CgCDR overexpressor); assay: microbe, parasite or virus in culture; assay type: cell-based; set-up: MIC Reduction Factor, fluconazole / MIC Reduction Factor, itraconazole / MIC Reduction Factor, ketoconazole / MIC Reduction Factor, terbinafine: unit not given beside the values; details: for MIC: Nakaseomyces glabratus
[20] = Candida albicans, read-out: MIC Mb alone
[21] = Nakaseomyces glabratus, read-out: MIC of milbemycin β1 (MB) alone
[22] = read-out: Terbinafine MIC in the presence of FEPImax
[23] = YEM-1 (CDR1), milbemycin α9 at FEPImax
[24] = YEM-1, milbemycin α9 at FEPImax
[25] = YEM-71, milbemycin α9 at FEPImax
[26] = YEM-39 (CgCDR), milbemycin α9 at FEPImax
[27] = YEM-39, milbemycin α9 at FEPImax
[28] = YEM-17, milbemycin α9 at FEPImax

Chain of pFLU (MF) efflux pump in S. cerevisiae YEM-38 (G1UB37 whole entry): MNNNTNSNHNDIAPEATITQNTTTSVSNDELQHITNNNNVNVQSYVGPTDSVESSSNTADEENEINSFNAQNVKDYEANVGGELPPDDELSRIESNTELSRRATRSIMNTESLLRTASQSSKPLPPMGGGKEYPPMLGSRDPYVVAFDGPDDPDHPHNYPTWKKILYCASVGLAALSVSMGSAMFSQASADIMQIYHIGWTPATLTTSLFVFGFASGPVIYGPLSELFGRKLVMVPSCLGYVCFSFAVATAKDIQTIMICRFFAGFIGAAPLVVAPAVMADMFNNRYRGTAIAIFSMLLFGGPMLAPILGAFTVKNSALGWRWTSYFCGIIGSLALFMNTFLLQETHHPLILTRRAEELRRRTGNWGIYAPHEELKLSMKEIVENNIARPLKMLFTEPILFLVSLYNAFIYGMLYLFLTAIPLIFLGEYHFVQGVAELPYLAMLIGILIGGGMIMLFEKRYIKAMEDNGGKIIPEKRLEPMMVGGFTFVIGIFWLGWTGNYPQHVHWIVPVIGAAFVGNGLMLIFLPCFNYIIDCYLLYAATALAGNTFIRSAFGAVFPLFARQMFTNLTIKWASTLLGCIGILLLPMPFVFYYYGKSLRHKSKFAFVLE
Chain of BenR pump (P28873 whole entry): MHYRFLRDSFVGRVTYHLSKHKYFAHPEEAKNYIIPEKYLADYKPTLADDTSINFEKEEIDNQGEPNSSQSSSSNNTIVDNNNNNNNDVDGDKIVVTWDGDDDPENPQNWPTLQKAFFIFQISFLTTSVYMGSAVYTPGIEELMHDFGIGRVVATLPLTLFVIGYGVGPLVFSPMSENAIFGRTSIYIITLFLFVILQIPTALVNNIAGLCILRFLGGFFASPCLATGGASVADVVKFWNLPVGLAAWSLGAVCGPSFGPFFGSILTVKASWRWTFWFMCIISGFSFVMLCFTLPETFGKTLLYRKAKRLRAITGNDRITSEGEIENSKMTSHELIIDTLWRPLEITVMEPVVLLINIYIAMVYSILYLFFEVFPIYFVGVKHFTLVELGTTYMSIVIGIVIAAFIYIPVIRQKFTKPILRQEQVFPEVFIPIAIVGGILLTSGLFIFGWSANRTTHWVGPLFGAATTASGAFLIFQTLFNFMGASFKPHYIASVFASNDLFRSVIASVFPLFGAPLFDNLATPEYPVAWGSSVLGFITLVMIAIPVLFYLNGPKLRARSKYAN

CO[C@H]1C[C@@]2(O)/C(CO)=C/C=C/[C@H](C)C/C(C)=C/C[C@@H]3C[C@@H](C[C@]4(CC[C@H](C)[C@@H](C)O4)O3)OC(=O)[C@@H]2C=C1C [Compound 6, Milbemycin β1]
MIC [1]: 16 µg/mL (≈ 29.4 µM) | Minimal concentration required to reduce the MIC of fluconazole by sixteen-fold (C. albicans YEM-13 (BEN)): 80 µg/mL | MIC [2]: 8 µg/mL (≈ 14.7 µM) | MIC [3]: 8 µg/mL (≈ 14.7 µM) | MIC [4, 20]: 16 µg/mL (≈ 29.4 µM) | MIC of fluconazole, Flu + Mb (2.5 μg/ml) ([4]; YEM-29, BEN, FLU1 deleted, milbemycin β1 2.5 μg/ml): 0.03 µg/mL | Minimal concentration required to reduce the MIC of fluconazole by sixteen-fold [5]: <0.07 µg/mL | MIC [6, 20]: 16 µg/mL (≈ 29.4 µM) | MIC of fluconazole, Flu + Mb (2.5 μg/ml) ([6]; YEM-20, CDR1 deleted, milbemycin β1 2.5 μg/ml): 0.125 µg/mL | Inhibition of the BenR pump (BenR pump): did not appreciably inhibit the BenR pump | MIC [7, 21]: > 64 µg/mL | Fluconazole MIC with 2.5 μg/ml milbemycin β1 ([7]; YEM-18): 2 µg/mL | Fluconazole MIC with 5 μg/ml milbemycin β1 ([7]; YEM-18): 2 µg/mL | Fluconazole MIC with 10 μg/ml milbemycin β1 ([7]; YEM-18): 2 µg/mL | Fluconazole MIC with […] milbemycin β1 ([7]; YEM-18): 2 µg/mL | MIC [8, 21]: > 64 µg/mL | Fluconazole MIC with 2.5 μg/ml milbemycin β1 ([8]; YEM-17): 4 µg/mL | Fluconazole MIC with 5 μg/ml milbemycin β1 ([8]; YEM-17): 2 µg/mL | Fluconazole MIC with 10 μg/ml milbemycin β1 ([8]; YEM-17): 2 µg/mL | Fluconazole MIC with […] milbemycin β1 ([8]; YEM-17): 8 µg/mL | MIC [9, 20]: 16 µg/mL (≈ 29.4 µM) | MIC of fluconazole, Flu + Mb (2.5 μg/ml) ([9]; YEM-30, milbemycin β1 2.5 μg/ml): 0.125 µg/mL | MIC [10]: 8 µg/mL (≈ 14.7 µM) | MIC [11, 20]: 16 µg/mL (≈ 29.4 µM) | MIC of fluconazole, Flu + Mb (2.5 μg/ml) ([11]; YEM-21, BEN deleted, milbemycin β1 2.5 μg/ml): 0.03 µg/mL | MIC [12, 21]: > 64 µg/mL | Fluconazole MIC with 2.5 μg/ml milbemycin β1 ([12]; YEM-16): 1 µg/mL | Fluconazole MIC with 5 μg/ml milbemycin β1 ([12]; YEM-16): 2 µg/mL | Fluconazole MIC with 10 μg/ml milbemycin β1 ([12]; YEM-16): 2 µg/mL | Fluconazole MIC with […] milbemycin β1 ([12]; YEM-16): 2 µg/mL | MIC [13, 20]: 16 µg/mL (≈ 29.4 µM) | MIC of fluconazole, Flu + Mb (2.5 μg/ml) ([13]; YEM-24, CDR1, CDR2 deleted, milbemycin β1 2.5 μg/ml): 0.125 µg/mL | MIC [14, 21]: > 64 µg/mL | Fluconazole MIC with 2.5 μg/ml milbemycin β1 ([14]; YEM-19): 8 µg/mL | Fluconazole MIC with 5 μg/ml milbemycin β1 ([14]; YEM-19): 2 µg/mL | Fluconazole MIC with 10 μg/ml milbemycin β1 ([14]; YEM-19): 2 µg/mL | Fluconazole MIC with […] milbemycin β1 ([14]; YEM-19): 32 µg/mL

C/C1=C\C[C@@H]2C[C@@H](C[C@]3(CC[C@H](C)[C@@H](C)O3)O2)OC(=O)[C@@H]2C=C(COC(=O)c3ccc[nH]3)[C@@H](O)[C@H]3OC/C(=C\C=C\[C@H](C)C1)[C@]32O [Compound 11, Milbemycin α9]
Fluconazole MIC, + milbemycin α9 (C. lipolytica): 8 µg/mL | Fluconazole MIC50, + milbemycin α9 [15]: 2 µg/mL | Fluconazole MIC Range, + milbemycin α9 [15]: <0.25 to 16 µg/mL | Reduction of fluconazole MIC90 by milbemycin α9 ([15]; C. glabrata (n=12)): 16 fold | Fluconazole MIC90, + milbemycin α9 ([15]; C. glabrata n = 12, MIC (80%) in YPD): 8 µg/mL | MIC ([16]; read-out: Milbemycin α9 MIC): > 64 µg/mL | MIC [16, 22]: 0.5 µg/mL | FEPImax (minimal milbemycin α9 conc. for maximum MIC reduction), fluconazole ([16]; YEM-1 (CDR1)): 2 µg/mL | FEPImax (minimal milbemycin α9 conc. for maximum MIC reduction), terbinafine ([16]; YEM-1 (CDR1)): 0.5 µg/mL | Pump inhibition (%), fluconazole [16, 23]: 100% | Pump inhibition (%), terbinafine [16, 23]: 100% | Fluconazole MIC in the presence of FEPImax [16, 24]: 0.5 µg/mL | MIC Reduction Factor, fluconazole [16, 24]: 256 | MIC (C. krusei YEM-71; YEM71, read-out: Milbemycin α9 MIC): > 64 µg/mL | MIC (C. krusei YEM-71; YEM71, read-out: Terbinafine MIC in the presence of FEPImax): 2 µg/mL | FEPImax (minimal milbemycin α9 conc. for maximum MIC reduction), fluconazole (C. krusei YEM-71; YEM-71): 1 µg/mL | FEPImax (minimal milbemycin α9 conc. for maximum MIC reduction), itraconazole (C. krusei YEM-71; YEM-71): 0.25 µg/mL | FEPImax (minimal milbemycin α9 conc. for maximum MIC reduction), ketoconazole (C. krusei YEM-71; YEM-71): 2 µg/mL | FEPImax (minimal milbemycin α9 conc. for maximum MIC reduction), terbinafine (C. krusei YEM-71; YEM-71): 0.008 µg/mL | Fluconazole MIC in the presence of FEPImax (C. krusei YEM-71; [25]): 8 µg/mL | Itraconazole MIC in the presence of FEPImax (C. krusei YEM-71; [25]): 0.008 µg/mL | Ketoconazole MIC in the presence of FEPImax (C. krusei YEM-71; [25]): 0.015 µg/mL | MIC Reduction Factor, fluconazole (C. krusei YEM-71; [25]): 16 | MIC Reduction Factor, itraconazole (C. krusei YEM-71; [25]): 64 | MIC Reduction Factor, ketoconazole (C. krusei YEM-71; [25]): 128 | MIC Reduction Factor, terbinafine (C. krusei YEM-71; [25]): 64 | Fluconazole MIC, + milbemycin α9 (C. krusei): 16 µg/mL | IC50 [17]: > 100 µM | MIC ([18]; read-out: Milbemycin α9 MIC): > 64 µg/mL | MIC [18, 22]: 1 µg/mL | FEPImax (minimal milbemycin α9 conc. for maximum MIC reduction), fluconazole ([18]; YEM-39 (CgCDR)): 2 µg/mL | FEPImax (minimal milbemycin α9 conc. for maximum MIC reduction), terbinafine ([18]; YEM-39 (CgCDR)): 2 µg/mL | Pump inhibition (%), fluconazole [18, 26]: 60% | Pump inhibition (%), terbinafine [18, 26]: 66% | Fluconazole MIC in the presence of FEPImax [18, 27]: 4 µg/mL | MIC Reduction Factor, fluconazole [18, 27]: 16 | Inhibition of CgCDR efflux pump from C. glabrata ([18]; summary of Table 9, fluconazole and terbinafine): 60-65% | MIC ([19]; read-out: Milbemycin α9 MIC): > 64 µg/mL | MIC [19, 22]: 4 µg/mL | FEPImax (minimal milbemycin α9 conc. for maximum MIC reduction), fluconazole ([19]; YEM-17): 8 µg/mL | FEPImax (minimal milbemycin α9 conc. for maximum MIC reduction), itraconazole ([19]; YEM-17): 4 µg/mL | FEPImax (minimal milbemycin α9 conc. for maximum MIC reduction), ketoconazole ([19]; YEM-17): 16 µg/mL | FEPImax (minimal milbemycin α9 conc. for maximum MIC reduction), terbinafine ([19]; YEM-17): 4 µg/mL | Fluconazole MIC in the presence of FEPImax [19, 28]: 4 µg/mL | Itraconazole MIC in the presence of FEPImax [19, 28]: 0.125 µg/mL | Ketoconazole MIC in the presence of FEPImax [19, 28]: 0.06 µg/mL | MIC Reduction Factor, fluconazole [19, 28]: 32 | MIC Reduction Factor, itraconazole [19, 28]: 1024 | MIC Reduction Factor, ketoconazole [19, 28]: 32 | MIC Reduction Factor, terbinafine [19, 28]: 32

— US6495591B1, “Fungal efflux pump inhibitors” (Essential Therapeutics, Inc., priority 1997, dated 2002)
